These results are taken from US10239849B2 (Merck Sharp & Dohme Corp., priority 2015, dated 2019).

In assay [1] the target is T1, glutathione-S-transferase (GST) tagged LXRbeta LBD (ligand binding domain) (Homo sapiens, UniProt P55055).
T1 construct: purchased Invitrogen pv4658.pps
T1 sequence (P55055 222-460 limits assumed): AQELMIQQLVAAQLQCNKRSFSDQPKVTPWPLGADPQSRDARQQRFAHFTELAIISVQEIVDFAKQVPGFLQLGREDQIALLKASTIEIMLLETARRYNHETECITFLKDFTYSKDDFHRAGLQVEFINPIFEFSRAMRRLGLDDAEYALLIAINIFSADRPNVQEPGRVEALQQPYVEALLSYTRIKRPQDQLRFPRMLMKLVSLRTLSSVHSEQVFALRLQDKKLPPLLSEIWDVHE
The assay is described as follows: LanthaScreen TR-FRET Liver X Receptor Coactivator Assay, LXR beta-LBD. The assay is classed as biochemical. The settings on record: for Emax: read-out: LXR beta activity at max dose (%) (Emax); for EC50: potency (Inflection Point) of co-activator recruitment, TR-FRET, read-out: LXR beta IP. The method, boiled down: (§1)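 TR-FRET read-out of coactivator recruitment: fluorescein-coactivator peptide plus Tb-anti-GST antibody added to LBD preincubated with compound; incubated at RT before reading.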
(In general: TR-FRET usually uses a lanthanide donor and a delayed reading to cut background.)

For assay [2], the target named is T2, glutathione-S-transferase (GST) tagged LXRalpha LBD (ligand binding domain) (Homo sapiens, UniProt Q13133).
T2 construct: purchased Invitrogen pv4655
T2 sequence (Q13133 209-447 limits assumed): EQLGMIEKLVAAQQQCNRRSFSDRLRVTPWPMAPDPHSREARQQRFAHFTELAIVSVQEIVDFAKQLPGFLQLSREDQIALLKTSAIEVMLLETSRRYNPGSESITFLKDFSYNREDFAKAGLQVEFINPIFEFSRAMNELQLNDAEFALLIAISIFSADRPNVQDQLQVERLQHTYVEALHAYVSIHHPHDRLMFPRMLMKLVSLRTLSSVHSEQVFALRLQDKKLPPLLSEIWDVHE
The assay is described as follows: LanthaScreen TR-FRET Liver X Receptor Coactivator Assay, LXR alpha-LBD. In kind it is biochemical. The settings on record: for Emax: read-out: LXR alpha activity at max dose (%) (Emax); for EC50: potency (Inflection Point) of co-activator recruitment, TR-FRET, read-out: LXR alpha IP. A digest of the protocol: as §1

[3] abbreviates: efficacy in relation to reference dual agonist T1317.

One may read the Emax as the greatest response seen or fitted, relative to the assay's reference. In the case of `CON(C)C(=O)c1ccc(-c2cnc(N3CCN(C(=O)OC(C)(C)C)CC3)c(C#N)c2)cc1Cl` [Example 5-7, tert-butyl 4-(5-{3-chloro-4-[methoxy(methyl)carbamoyl]phenyl}-3-cyanopyridin-2-yl)piperazine-1-carboxylate], the Emax was 69% in assay [1] (setting [3]) and 39% in assay [2] (setting [3]). Moreover, the EC50 in assay [1] stood at 82 nM; in assay [2] it was 2660 nM.
On the same counts, the results for `CN(C)C(=O)c1ccc(-c2ccc(N3CCCN(C(=O)OC(C)(C)C)CC3)cc2)cc1Cl` [Example 8-1, tert-butyl 4-[3′-chloro-4′-(dimethylcarbamoyl)biphenyl-4-yl]-1,4-diazepane-1-carboxylate] are 86%, 55%, 63 nM and 936 nM.
Consider `CC(C)C(O)(C(=O)N1CCN(c2ncc(-c3cc(Cl)c(C(=O)N(C)C)c(Cl)c3)cc2C#N)CC1)C(F)(F)F` (single isomer, unassigned) [Example 7-6, 2,6-dichloro-4-(5-cyano-6-{4-[2-hydroxy-3-methyl-2-(trifluoromethyl)butanoyl]piperazin-1-yl}pyridin-3-yl)-N,N-dimethylbenzamide], for which the “LXR beta activity at max dose (%) (Emax)” value in assay [1] (setting [3]) amounted to 79%. The EC50 amounted to 34 nM in assay [1] and 760 nM in assay [2]. In addition, the “LXR alpha activity at max dose (%) (Emax)” value in assay [2] (setting [3]) is 28%.
Regarding `C#Cc1cc(-c2ccc(C(=O)N(C)C)c(Cl)c2)cnc1N1CCN(C(=O)OC(C)(C)C)CC1` [Example 9-5], the values for the Emax in assay [1] (setting [3]) and in assay [2] (setting [3]) were 59% and 49%, respectively. Also, the EC50 in assay [1] turned out to be 62 nM; in assay [2], 2360 nM.
As for `CN(C)C(=O)c1ccc(-c2cnc(N3CCN(C(=O)OC(C)(C)C)C(c4ccccc4)C3)c(C#N)c2)cc1Cl` (centres unmarked) [Example 8-12, tert-butyl 4-{5-[3-chloro-4-(dimethylcarbamoyl)phenyl]-3-cyanopyridin-2-yl}-2-phenylpiperazine-1-carboxylate], the Emax in assay [1] (setting [3]) came out at 70%; in assay [2] (setting [3]), 40%. Besides, the EC50 in assay [1] is 6 nM; in assay [2], 954 nM.
As for `COc1ccccc1COC(=O)N1CCN(c2ncc(-c3ccc(C(=O)N(C)C)c(Cl)c3)cc2C#N)CC1` [Example 3-7, 2-methoxybenzyl 4-{5-[3-chloro-4-(dimethylcarbamoyl)phenyl]-3-cyanopyridin-2-yl}piperazine-1-carboxylate], the Emax in assay [1] (setting [3]) was 85%; in assay [2] (setting [3]) it was 41%. The EC50 is 36 nM in assay [1] and 8590 nM in assay [2].
As for `CN(C)C(=O)c1ccc(-c2cnc(N3CCN(C(=O)C(O)(C(F)(F)F)C(F)(F)F)CC3)c(C#N)c2)cc1Cl` [Example 2-30, 2-chloro-4-(5-cyano-6-{4-[3,3,3-trifluoro-2-hydroxy-2-(trifluoromethyl)propanoyl]piperazin-1-yl}pyridin-3-yl)-N,N-dimethylbenzamide], the results for the Emax in assay [1] (setting [3]) and in assay [2] (setting [3]) were 125% and 66%, respectively. The EC50 is 6 nM in assay [1] and 5290 nM in assay [2].
As to `CN(C)C(=O)c1ccc(-c2ccc(N3CCN(S(=O)(=O)c4c(Cl)cccc4C(F)(F)F)CC3)c(Cl)c2)cc1Cl` [Example 4-9, 3,3′-dichloro-4′-(4-{[2-chloro-6-(trifluoromethyl)phenyl]sulfonyl}piperazin-1-yl)-N,N-dimethylbiphenyl-4-carboxamide], the Emax stood at 96% in assay [1] (setting [3]) and 51% in assay [2] (setting [3]). For the same compound, the EC50 came out at 597 nM in assay [1] and 4130 nM in assay [2].
`CO[C@@](C(=O)N1CCN(c2ncc(-c3ccc(C(=O)N(C)C)c(Cl)c3)cc2C#N)CC1)(c1ccccc1)C(F)(F)F` [Example 2-35, 2-chloro-4-(5-cyano-6-{4-[(2R)-3,3,3-trifluoro-2-methoxy-2-phenylpropanoyl]piperazin-1-yl}pyridin-3-yl)-N,N-dimethylbenzamide]: the Emax stood at 70% in assay [1] (setting [3]) and 62% in assay [2] (setting [3]). The EC50 in assay [1] is 75 nM; in assay [2] it was 54100 nM.
As for `CN(C)C(=O)c1ccc(-c2cnc(N3CCN(S(=O)(=O)c4ccccc4OC(F)(F)F)CC3)c(C#N)c2)cc1Cl` [Example 1-14, 2-chloro-4-[5-cyano-6-(4-{[2-(trifluoromethoxy)phenyl]sulfonyl}piperazin-1-yl)pyridin-3-yl]-N,N-dimethylbenzamide], the maximal response (Emax) in assay [1] (setting [3]) was 99%; in assay [2] (setting [3]), 37%. For the same compound, the EC50 in assay [1] came out at 20 nM; in assay [2], 1050 nM.
For `CCCC(O)(C(=O)N1CCN(c2ncc(-c3ccc(C(=O)N(C)C)c(Cl)c3)cc2C#N)CC1)C(F)(F)F` (centres unmarked) [Example 2-25, 2-chloro-4-(5-cyano-6-{4-[2-hydroxy-2-(trifluoromethyl)pentanoyl]piperazin-1-yl}pyridin-3-yl)-N,N-dimethylbenzamide], in that order: 100%, 53%, 94 nM and 4150 nM.
For `CN(CCCO)C(=O)c1ccc(-c2cnc(N3CCN(C(=O)OC(C)(C)C)CC3)c(C#N)c2)cc1Cl` [Example 5-15, tert-butyl 4-(5-{3-chloro-4-[(3-hydroxypropyl) (methyl)carbamoyl]phenyl}-3-cyanopyridin-2-yl)piperazine-1-carboxylate], the values for the Emax in assay [1] (setting [3]) and in assay [2] (setting [3]) were 70% and 42%, respectively. For the same compound, the EC50 in assay [1] is 261 nM; in assay [2], 6870 nM.
For `CN(C)C(=O)c1ccc(-c2cnc(N3CCN(S(=O)(=O)c4ccccc4F)CC3)c(C#N)c2)cc1Cl` [Example 1-8, 2-chloro-4-(5-cyano-6-{4-[(2-fluorophenyl)sulfonyl]piperazin-1-yl}pyridin-3-yl)-N,N-dimethylbenzamide], in that order: 89%, 34%, 17 nM and 12100 nM.
`CN(C)C(=O)c1ccc(-c2cnc(N3CCN(S(=O)(=O)C4CCCCC4)CC3)c(C#N)c2)cc1Cl` [Example 1-7, 2-chloro-4-{5-cyano-6-[4-(cyclohexylsulfonyl)piperazin-1-yl]pyridin-3-yl}-N,N-dimethylbenzamide]: the results for the maximum response (Emax) in assay [1] (setting [3]) and in assay [2] (setting [3]) were 79% and 39%, respectively. In addition, the EC50 worked out at 337 nM in assay [1] and 14200 nM in assay [2].
Take `CN(C)C(=O)c1ccc(-c2cnc(N3CCN(C(=O)OC(C)(C)C)CC3)c(CO)c2)cc1Cl` [Example 9-3, tert-butyl 4-{5-[3-chloro-4-(dimethylcarbamoyl)phenyl]-3-(hydroxymethyl)pyridin-2-yl}piperazine-1-carboxylate]: the Emax turned out to be 57% in assay [1] (setting [3]) and 34% in assay [2] (setting [3]). In addition, the EC50 stood at 730 nM in assay [1] and 30100 nM in assay [2].
On the same counts, the results for `CCCCC(C)(C)C(=O)N1CCN(c2ncc(-c3ccc(C(=O)N(C)C)c(Cl)c3)cc2C#N)CC1` [Example 2-12, 2-chloro-4-{5-cyano-6-[4-(2,2-dimethylhexanoyl)piperazin-1-yl]pyridin-3-yl}-N,N-dimethylbenzamide] are 79%, 43%, 27 nM and 1750 nM.
On the same counts, the results for `CN(C)C(=O)c1ccc(-c2ccc(N3CCN(S(=O)(=O)c4c(Cl)cccc4Cl)CC3)c(Cl)c2)cc1Cl` [Example 4-8, 3,3′-dichloro-4′-{4-[(2,6-dichlorophenyl)sulfonyl]piperazin-1-yl}-N,N-dimethylbiphenyl-4-carboxamide] are 101%, 38%, 2820 nM and 10500 nM.
On the same counts, the results for `CN(C)C(=O)c1ccc(-c2cnc(N3CCN(C(=O)c4c(F)cccc4F)CC3)c(C#N)c2)cc1Cl` [Example 2-1, 2-chloro-4-(5-cyano-6-{4-[(2,6-difluorophenyl)carbonyl]piperazin-1-yl}pyridin-3-yl)-N,N-dimethylbenzamide] are 40%, 23%, 212 nM and 8860 nM.
For `CN(C)C(=O)c1ccc(-c2ccc(N3CCN(C(=O)OC(C)(C)C)CC3)cc2)cc1Cl` [Example 4-11, tert-butyl 4-[3′-chloro-4′-(dimethylcarbamoyl)biphenyl-4-yl]piperazine-1-carboxylate], the Emax in assay [1] (setting [3]) worked out at 82%; in assay [2] (setting [3]), 55%. Also, the figures for the EC50 in assay [1] and in assay [2] were 238 nM and 5470 nM, respectively.
In the case of `CN(C)C(=O)c1ccc(-c2ccc(N3CCN(S(=O)(=O)c4c(Cl)cccc4C(F)(F)F)CC3)cc2)cc1Cl` [Example 4-14, 3-chloro-4′-(4-{[2-chloro-6-(trifluoromethyl)phenyl]sulfonyl}piperazin-1-yl)-N,N-dimethylbiphenyl-4-carboxamide], the Emax in assay [1] (setting [3]) turned out to be 88%; in assay [2] (setting [3]), 25%. The values for the EC50 in assay [1] and in assay [2] were 549 nM and 9810 nM, respectively.
